Assay results published in patent US10487068B2, “Pyridazine derivatives as RORc modulators” (Genentech, Inc., priority 2015, dated 2019).

Biological target: T1, RORc ligand binding domain (Homo sapiens, UniProt P51449)
T1 sequence (P51449 269-508 limits assumed): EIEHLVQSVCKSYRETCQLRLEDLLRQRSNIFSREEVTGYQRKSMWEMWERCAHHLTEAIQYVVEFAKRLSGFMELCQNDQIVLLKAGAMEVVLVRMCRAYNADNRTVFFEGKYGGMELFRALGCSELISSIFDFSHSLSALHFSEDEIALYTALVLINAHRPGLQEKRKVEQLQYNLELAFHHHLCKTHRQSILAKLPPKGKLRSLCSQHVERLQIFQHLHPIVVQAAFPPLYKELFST
Assay: In Vitro RORc Ligand Binding Assay
Details: RORc IC50, radioligand 25-[3H]hydroxycholesterol 6 nM; 0.6 ug/mL RORc receptor; 3 h at 25° C.

| IC50 | SMILES |
| --- | --- |
| 117 nM | CC1(C)[C@H]2CC[C@]1(c1nccc(C(=O)NCCO)n1)c1nnc(-c3c(F)cccc3F)cc12 [Example 95, 2-((5R,8R)-3-(2,6-difluorophenyl)-9,9-dimethyl-5,6,7,8-tetrahydro-5,8-methanocinnolin-8-yl)-N-(2-hydroxyethyl)pyrimidine-4-carboxamide] |
| 34.3 nM | CC1(C)[C@H]2CC[C@]1(c1cccc(C(=O)Nc3c[nH]c(=O)cn3)n1)c1nnc(-c3c(F)cccc3F)cc12 [Example 96, 6-((5R,8S)-3-(2,6-difluorophenyl)-9,9-dimethyl-5,6,7,8-tetrahydro-5,8-methanocinnolin-8-yl)-N-(5-oxo-4,5-dihydropyrazin-2-yl)picolinamide] |
| 98.3 nM | CC1(C)[C@H]2CC[C@]1(c1nccc(NCCO)n1)c1nnc(-c3c(F)cccc3F)cc12 [Example 97, 2-((2-((5R,8R)-3-(2,6-difluorophenyl)-9,9-dimethyl-5,6,7,8-tetrahydro-5,8-methanocinnolin-8-yl)pyrimidin-4-yl)amino)ethanol] |
| 15.4 nM | CC1(C)[C@H]2CC[C@]1(c1ccnc(NCCO)n1)c1nnc(-c3c(F)cccc3F)cc12 [Example 98] |
| 40.9 nM | CC1(C)[C@@H]2CC[C@@]1(c1cccc(C(=O)NCCO)n1)c1nnc(-c3c(F)cccc3F)cc12 [Example 99, 6-((5S,8R)-3-(2,6-difluorophenyl)-9,9-dimethyl-5,6,7,8-tetrahydro-5,8-methanocinnolin-8-yl)-N-(2-hydroxyethyl)picolinamide] |
| 41.3 nM | C[C@H](O)CNC(=O)c1cccc([C@]23CC[C@H](c4cc(-c5c(F)cccc5F)nnc42)C3(C)C)n1 [Example 100, 6-((5S,8R)-3-(2,6-difluorophenyl)-9,9-dimethyl-5,6,7,8-tetrahydro-5,8-methanocinnolin-8-yl)-N-((S)-2-hydroxypropyl)picolinamide] |
| 21.9 nM | CC(=O)Nc1cccc([C@@]23CC[C@@H](c4cc(-c5c(F)cccc5F)nnc42)C3(C)C)n1 [Example 101, N-(6-((5R,8S)-3-(2,6-difluorophenyl)-9,9-dimethyl-5,6,7,8-tetrahydro-5,8-methanocinnolin-8-yl)pyridin-2-yl)acetamide] |
| 21.6 nM | Cc1nnc(-c2cccc([C@@]34CC[C@@H](c5cc(-c6c(F)cccc6F)nnc53)C4(C)C)n2)o1 [Example 102, 2-(6-((5R,8S)-3-(2,6-difluorophenyl)-9,9-dimethyl-5,6,7,8-tetrahydro-5,8-methanocinnolin-8-yl)pyridin-2-yl)-5-methyl-1,3,4-oxadiazole] |
| 29.1 nM | CC1(C)[C@H]2CC[C@]1(c1cncc(NC(=O)C3COC3)n1)c1nnc(-c3c(F)cccc3F)cc12 [Example 103, N-(6-((5R,8S)-3-(2,6-difluorophenyl)-9,9-dimethyl-5,6,7,8-tetrahydro-5,8-methanocinnolin-8-yl)pyrazin-2-yl)oxetane-3-carboxamide] |
| 25.9 nM | CC1(C)[C@H]2CC[C@]1(c1cncc(-c3nnc[nH]3)n1)c1nnc(-c3c(F)cccc3F)cc12 [Example 104] |
| 30.9 nM | Cc1nnc(-c2cncc([C@@]34CC[C@@H](c5cc(-c6c(F)cccc6F)nnc53)C4(C)C)n2)[nH]1 [Example 105] |
| 31.1 nM | CC1(C)[C@H]2CC[C@]1(c1cncc(C(=O)NCC3(O)COC3)n1)c1nnc(-c3c(F)cccc3F)cc12 [Example 106, 6-((5R,8S)-3-(2,6-difluorophenyl)-9,9-dimethyl-5,6,7,8-tetrahydro-5,8-methanocinnolin-8-yl)-N-((3-hydroxyoxetan-3-yl)methyl)pyrazine-2-carboxamide] |
| 69.5 nM | CC1(C)[C@H]2CC[C@]1(c1cncc(C(=O)NC[C@@H](O)CO)n1)c1nnc(-c3c(F)cccc3F)cc12 [Example 107, 6-((5R,8S)-3-(2,6-difluorophenyl)-9,9-dimethyl-5,6,7,8-tetrahydro-5,8-methanocinnolin-8-yl)-N-((R)-2,3-dihydroxypropyl)pyrazine-2-carboxamide] |
| 47.5 nM | CC1(C)[C@H]2CC[C@]1(c1cncc(C(=O)NC[C@H](O)CO)n1)c1nnc(-c3c(F)cccc3F)cc12 [Example 108, 6-((5R,8S)-3-(2,6-difluorophenyl)-9,9-dimethyl-5,6,7,8-tetrahydro-5,8-methanocinnolin-8-yl)-N-((S)-2,3-dihydroxypropyl)pyrazine-2-carboxamide] |
| 19.8 nM | C[C@@H](O)CNC(=O)c1cncc([C@]23CC[C@H](c4cc(-c5c(F)cccc5F)nnc42)C3(C)C)n1 [Example 109, 6-((5S,8R)-3-(2,6-difluorophenyl)-9,9-dimethyl-5,6,7,8-tetrahydro-5,8-methanocinnolin-8-yl)-N-((R)-2-hydroxypropyl)pyrazine-2-carboxamide] |
| 51.4 nM | CC1(C)[C@H]2CC[C@]1(c1cncc(C(=O)NCCS(C)(=O)=O)n1)c1nnc(-c3c(F)cccc3F)cc12 [Example 110, 6-((5R,8S)-3-(2,6-difluorophenyl)-9.9-dimethyl-5,6,7,8-tetrahydro-5,8-methanocinnolin-8-yl)-N-(2-(methylsulfonyl)ethyl)pyrazine-2-carboxamide] |

| IC50 | SMILES |
| --- | --- |
| 41.4 nM | CC1(C)[C@H]2CC[C@]1(c1ccnc(NS(C)(=O)=O)n1)c1nnc(-c3c(F)cccc3F)cc12 [Example 111] |
| 13.7 nM | CC1(C)[C@H]2CC[C@]1(c1cccc(NC(=O)CO)n1)c1nnc(-c3c(F)cccc3F)cc12 [Example 112, N-(6-((5R,8S)-3-(2,6-difluorophenyl)-9,9-dimethyl-5,6,7,8-tetrahydro-5,8-methanocinnolin-8-yl)pyridin-2-yl)-2-hydroxyacetamide] |
| 27.6 nM | CC1(C)[C@H]2CC[C@]1(c1ccnc(C(N)=O)n1)c1nnc(-c3c(F)cccc3F)cc12 [Example 113] |
| 38.8 nM | C[C@H](O)CNC(=O)c1nccc([C@@]23CC[C@@H](c4cc(-c5c(F)cccc5F)nnc42)C3(C)C)n1 [Example 114] |
| 63.2 nM | C[C@@H](O)CNC(=O)c1nccc([C@@]23CC[C@@H](c4cc(-c5c(F)cccc5F)nnc42)C3(C)C)n1 [Example 115] |
| 15.2 nM | CC1(C)[C@H]2CC[C@]1(c1cccc(CNC(=O)CO)n1)c1nnc(-c3c(F)cccc3F)cc12 [Example 116, N-((6-((5R,8S)-3-(2,6-difluorophenyl)-9,9-dimethyl-5,6,7,8-tetrahydro-5,8-methanocinnolin-8-yl)pyridin-2-yl)methyl)-2-hydroxyacetamide] |
| 7.6 nM | Cc1coc(-c2cncc([C@@]34CC[C@@H](c5cc(-c6c(F)cccc6F)nnc53)C4(C)C)n2)n1 [Example 117, 2-(6-((5R,8S)-3-(2,6-difluorophenyl)-9,9-dimethyl-5,6,7,8-tetrahydro-5,8-methanocinnolin-8-yl)pyrazin-2-yl)-4-methyloxazole] |
| 13 nM | Cc1ncc(-c2cncc([C@@]34CC[C@@H](c5cc(-c6c(F)cccc6F)nnc53)C4(C)C)n2)o1 [Example 118, 5-(6-((5R,8S)-3-(2,6-difluorophenyl)-9,9-dimethyl-5,6,7,8-tetrahydro-5,8-methanocinnolin-8-yl)pyrazin-2-yl)-2-methyloxazole] |
| 58.9 nM | CC1(C)[C@H]2CC[C@]1(c1cncc(C(=O)NC(CO)CO)n1)c1nnc(-c3c(F)cccc3F)cc12 [Example 119, 6-((5R,8S)-3-(2,6-difluorophenyl)-9,9-dimethyl-5,6,7,8-tetrahydro-5,8-methanocinnolin-8-yl)-N-(1,3-dihydroxypropan-2-yl)pyrazine-2-carboxamide] |
| 8.6 nM | Cc1nc(-c2cncc([C@@]34CC[C@@H](c5cc(-c6c(F)cccc6F)nnc53)C4(C)C)n2)co1 [Example 120, 4-(6-((5R,8S)-3-(2,6-difluorophenyl)-9,9-dimethyl-5,6,7,8-tetrahydro-5,8-methanocinnolin-8-yl)pyrazin-2-yl)-2-methyloxazole] |
| 27.2 nM | CC1(C)[C@H]2CC[C@]1(c1cncc(-c3nnc(CO)[nH]3)n1)c1nnc(-c3c(F)cccc3F)cc12 [Example 121, (5-(6-((5R,8S)-3-(2,6-difluorophenyl)-9,9-dimethyl-5,6,7,8-tetrahydro-5,8-methanocinnolin-8-yl)pyrazin-2-yl)-4H-1,2,4-triazol-3-yl)methanol] |
| 38.6 nM | CC1(C)[C@H]2CC[C@]1(c1ccnc(NC(CO)CO)n1)c1nnc(-c3c(F)cccc3F)cc12 [Example 122] |
| 32.5 nM | CC1(C)[C@H]2CC[C@]1(c1cncc(-c3n[nH]c(=O)[nH]3)n1)c1nnc(-c3c(F)cccc3F)cc12 [Example 123, 3-(6-((5R,8S)-3-(2,6-difluorophenyl)-9,9-dimethyl-5,6,7,8-tetrahydro-5,8-methanocinnolin-8-yl)pyrazin-2-yl)-1H-1,2,4-triazol-5(4H)-one] |
| 50.8 nM | CC1(C)[C@H]2CC[C@]1(c1cncc(C(=O)NCC3(O)CC3)n1)c1nnc(-c3c(F)cccc3F)cc12 [Example 124, 6-((5R,8S)-3-(2,6-difluorophenyl)-9,9-dimethyl-5,6,7,8-tetrahydro-5,8-methanocinnolin-8-yl)-N-((1-hydroxycyclopropyl)methyl)pyrazine-2-carboxamide] |
| 20.9 nM | CC1(C)[C@H]2CC[C@]1(c1cncc(-c3noc(=O)[nH]3)n1)c1nnc(-c3c(F)cccc3F)cc12 [Example 125, 3-(6-((5R,8S)-3-(2,6-difluorophenyl)-9,9-dimethyl-5,6,7,8-tetrahydro-5,8-methanocinnolin-8-yl)pyrazin-2-yl)-1,2,4-oxadiazol-5(4H)-one] |
| 45.6 nM | C[C@H](O)CNC(=O)c1cncc([C@@]23CC[C@@H](c4cc(-c5ccccc5F)nnc42)C3(C)C)n1 [Example 126, 6-((5R,8S)-3-(2-fluorophenyl)-9,9-dimethyl-5,6,7,8-tetrahydro-5,8-methanocinnolin-8-yl)-N-((S)-2-hydroxypropyl)pyrazine-2-carboxamide] |
